According to PubChem BioAssay AID1963420 (Molecular Pharmacology Branch, DTP, NCI, 2024):
pIC50: −log10 of the molar value.

Test system: 494315-158-R-J1-PDC complex spheroid growth, percent test/control
Assay: Anticancer human tumor 494315-158-R-J1-PDC patient-derived soft tissue sarcoma cell line growth inhibition [Asc]
Conditions: for pIC50: curve of first compound; for viability, T/C: stronger effect = lower value
Procedure, shortened: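 Tumor cells were grown as multicellular spheroids with stromal HUVEC and mesenchymal stem cells and treated singly or in combination. Concentrations fell in half-log steps from the clinical Cmax, or from 10 microM where none was known.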

[1] = second compound 0.01 µM, first compound 0.0316 µM
[2] = second compound 0.01 µM, first compound 0.1 µM
[3] = second compound 0.01 µM, first compound 0.316 µM
[4] = second compound 0.01 µM, first compound 1 µM
[5] = second compound 0.01 µM, first compound 3.16 µM
[6] = second compound 0.01 µM, first compound 10 µM
[7] = second compound 0.0316 µM, first compound 0.0316 µM
[8] = second compound 0.0316 µM, first compound 0.1 µM
[9] = second compound 0.0316 µM, first compound 0.316 µM
[10] = second compound 0.0316 µM, first compound 1 µM
[11] = second compound 0.0316 µM, first compound 3.16 µM
[12] = second compound 0.0316 µM, first compound 10 µM
[13] = second compound 0.1 µM, first compound 0.0316 µM
[14] = second compound 0.1 µM, first compound 0.1 µM
[15] = second compound 0.1 µM, first compound 0.316 µM
[16] = second compound 0.1 µM, first compound 1 µM
[17] = second compound 0.1 µM, first compound 3.16 µM
[18] = second compound 0.1 µM, first compound 10 µM
[19] = second compound 0.316 µM, first compound 0.0316 µM
[20] = second compound 0.316 µM, first compound 0.1 µM
[21] = second compound 0.316 µM, first compound 0.316 µM
[22] = second compound 0.316 µM, first compound 1 µM
[23] = second compound 0.316 µM, first compound 3.16 µM
[24] = second compound 0.316 µM, first compound 10 µM
[25] = second compound 1 µM, first compound 0.0316 µM
[26] = second compound 1 µM, first compound 0.1 µM
[27] = second compound 1 µM, first compound 0.316 µM
[28] = second compound 1 µM, first compound 1 µM
[29] = second compound 1 µM, first compound 3.16 µM
[30] = second compound 1 µM, first compound 10 µM
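Note: compound exposure lasted seven days after spheroids formed for three days.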

C#Cc1c(F)ccc2cc(O)cc(-c3ncc4c(N5CC6CCC(C5)N6)nc(OCC56CCCN5CC(F)C6)nc4c3F)c12 (stereo not given) + CNC(C)C(=O)NC1CN(S(=O)(=O)c2cccc(S(=O)(=O)N3CCC4CCC(C(=O)NC(c5ccccc5)c5ccccc5)N4C(=O)C(NC(=O)C(C)NC)C3)c2)CCC2CCC(C(=O)NC(c3ccccc3)c3ccccc3)N2C1=O
pIC50 (second compound 0.01 µM): < 5.00 | pIC50 (second compound 0.0316 µM): < 5.00 | pIC50 (second compound 0.1 µM): < 5.00 | pIC50 (second compound 0.316 µM): < 5.00 | pIC50 (second compound 1 µM): > 7.50 | viability, T/C [1]: 75.8% | viability, T/C [2]: 77.5% | viability, T/C [3]: 78.4% | viability, T/C [4]: 89.3% | viability, T/C [5]: 86.8% | viability, T/C [6]: 82% | viability, T/C [7]: 66.7% | viability, T/C [8]: 59.8% | viability, T/C [9]: 71.6% | viability, T/C [10]: 71.6% | viability, T/C [11]: 76.9% | viability, T/C [12]: 78% | viability, T/C [13]: 53.5% | viability, T/C [14]: 65.6% | viability, T/C [15]: 65.3% | viability, T/C [16]: 65.4% | viability, T/C [17]: 72.4% | viability, T/C [18]: 70.7% | viability, T/C [19]: 47.8% | viability, T/C [20]: 48.1% | viability, T/C [21]: 52.7% | viability, T/C [22]: 51.9% | viability, T/C [23]: 51.4% | viability, T/C [24]: 69.5% | viability, T/C [25]: 37.6% | viability, T/C [26]: 43.8% | viability, T/C [27]: 39.4% | viability, T/C [28]: 45.8% | viability, T/C [29]: 55.5% | viability, T/C [30]: 55.6%

C=C(F)C(=O)N1CCN(c2nc(OCC3CCCN3C)nc3c2CCN(c2cccc4cccc(Cl)c24)C3)CC1CC#N (stereo not given) + CNC(C)C(=O)NC1CN(S(=O)(=O)c2cccc(S(=O)(=O)N3CCC4CCC(C(=O)NC(c5ccccc5)c5ccccc5)N4C(=O)C(NC(=O)C(C)NC)C3)c2)CCC2CCC(C(=O)NC(c3ccccc3)c3ccccc3)N2C1=O
pIC50 (second compound 0.01 µM): 5.81 | pIC50 (second compound 0.0316 µM): 6.29 | pIC50 (second compound 0.1 µM): 5.99 | pIC50 (second compound 0.316 µM): > 7.50 | pIC50 (second compound 1 µM): > 7.50 | viability, T/C [1]: 68.7% | viability, T/C [2]: 70.6% | viability, T/C [3]: 61.5% | viability, T/C [4]: 62.9% | viability, T/C [5]: 30.8% | viability, T/C [6]: 0.15% | viability, T/C [7]: 51.8% | viability, T/C [8]: 56.5% | viability, T/C [9]: 46.2% | viability, T/C [10]: 48.5% | viability, T/C [11]: 20.6% | viability, T/C [12]: 0.13% | viability, T/C [13]: 50.7% | viability, T/C [14]: 48% | viability, T/C [15]: 52.3% | viability, T/C [16]: 51.7% | viability, T/C [17]: 18.9% | viability, T/C [18]: 0.11% | viability, T/C [19]: 44.9% | viability, T/C [20]: 43.4% | viability, T/C [21]: 38.8% | viability, T/C [22]: 45.7% | viability, T/C [23]: 12.8% | viability, T/C [24]: 0.11% | viability, T/C [25]: 34.3% | viability, T/C [26]: 39.9% | viability, T/C [27]: 36.7% | viability, T/C [28]: 39.8% | viability, T/C [29]: 8.22% | viability, T/C [30]: 0.18%

C=CC(=O)N1CCN(c2nc(=O)n(-c3c(C)ccnc3C(C)C)c3nc(-c4c(O)cccc4F)c(F)cc23)C(C)C1 (stereo not given) + CNC(C)C(=O)NC1CN(S(=O)(=O)c2cccc(S(=O)(=O)N3CCC4CCC(C(=O)NC(c5ccccc5)c5ccccc5)N4C(=O)C(NC(=O)C(C)NC)C3)c2)CCC2CCC(C(=O)NC(c3ccccc3)c3ccccc3)N2C1=O
pIC50 (second compound 0.01 µM): < 5.00 | pIC50 (second compound 0.0316 µM): < 5.00 | pIC50 (second compound 0.1 µM): < 5.00 | pIC50 (second compound 0.316 µM): > 7.50 | pIC50 (second compound 1 µM): > 7.50 | viability, T/C [1]: 72.5% | viability, T/C [2]: 70.5% | viability, T/C [3]: 74.1% | viability, T/C [4]: 69.5% | viability, T/C [5]: 78.4% | viability, T/C [6]: 57.8% | viability, T/C [7]: 58.2% | viability, T/C [8]: 60.8% | viability, T/C [9]: 57.6% | viability, T/C [10]: 73.5% | viability, T/C [11]: 59.5% | viability, T/C [12]: 45.2% | viability, T/C [13]: 53.2% | viability, T/C [14]: 54% | viability, T/C [15]: 62.1% | viability, T/C [16]: 55.4% | viability, T/C [17]: 60.3% | viability, T/C [18]: 42.5% | viability, T/C [19]: 49% | viability, T/C [20]: 50.1% | viability, T/C [21]: 46.2% | viability, T/C [22]: 45.8% | viability, T/C [23]: 51.5% | viability, T/C [24]: 42.2% | viability, T/C [25]: 45.2% | viability, T/C [26]: 49.7% | viability, T/C [27]: 44.9% | viability, T/C [28]: 35.3% | viability, T/C [29]: 38.8% | viability, T/C [30]: 40.9%

CCN1C(C(=O)NC23CCC(C(=O)O)(CC2)CC3)C(c2cccc(Cl)c2F)C2(C(=O)Nc3cc(Cl)ccc32)C12CCCCC2 (stereo not given) + CNC(C)C(=O)NC1CN(S(=O)(=O)c2cccc(S(=O)(=O)N3CCC4CCC(C(=O)NC(c5ccccc5)c5ccccc5)N4C(=O)C(NC(=O)C(C)NC)C3)c2)CCC2CCC(C(=O)NC(c3ccccc3)c3ccccc3)N2C1=O
pIC50 (second compound 0.01 µM): < 5.52 | pIC50 (second compound 0.0316 µM): < 5.52 | pIC50 (second compound 0.1 µM): 6.27 | pIC50 (second compound 0.316 µM): 7.35 | pIC50 (second compound 1 µM): > 8.02 | viability, T/C (second compound 0.01 µM, first compound 0.00949 µM): 66.2% | viability, T/C (second compound 0.01 µM, first compound 0.03 µM): 77.9% | viability, T/C (second compound 0.01 µM, first compound 0.0949 µM): 66.8% | viability, T/C (second compound 0.01 µM, first compound 0.3 µM): 73.7% | viability, T/C (second compound 0.01 µM, first compound 0.949 µM): 67.5% | viability, T/C (second compound 0.01 µM, first compound 3 µM): 57.8% | viability, T/C (second compound 0.0316 µM, first compound 0.00949 µM): 57.3% | viability, T/C (second compound 0.0316 µM, first compound 0.03 µM): 62.8% | viability, T/C (second compound 0.0316 µM, first compound 0.0949 µM): 61.5% | viability, T/C (second compound 0.0316 µM, first compound 0.3 µM): 71% | viability, T/C (second compound 0.0316 µM, first compound 0.949 µM): 60.6% | viability, T/C (second compound 0.0316 µM, first compound 3 µM): 51.4% | viability, T/C (second compound 0.1 µM, first compound 0.00949 µM): 51.4% | viability, T/C (second compound 0.1 µM, first compound 0.03 µM): 53.4% | viability, T/C (second compound 0.1 µM, first compound 0.0949 µM): 56.5% | viability, T/C (second compound 0.1 µM, first compound 0.3 µM): 52% | viability, T/C (second compound 0.1 µM, first compound 0.949 µM): 47.1% | viability, T/C (second compound 0.1 µM, first compound 3 µM): 39.3% | viability, T/C (second compound 0.316 µM, first compound 0.00949 µM): 53.9% | viability, T/C (second compound 0.316 µM, first compound 0.03 µM): 55.3% | viability, T/C (second compound 0.316 µM, first compound 0.0949 µM): 49.8% | viability, T/C (second compound 0.316 µM, first compound 0.3 µM): 39.5% | viability, T/C (second compound 0.316 µM, first compound 0.949 µM): 41% | viability, T/C (second compound 0.316 µM, first compound 3 µM): 45.4% | viability, T/C (second compound 1 µM, first compound 0.00949 µM): 39.6% | viability, T/C (second compound 1 µM, first compound 0.03 µM): 45.6% | viability, T/C (second compound 1 µM, first compound 0.0949 µM): 44.5% | viability, T/C (second compound 1 µM, first compound 0.3 µM): 38.7% | viability, T/C (second compound 1 µM, first compound 0.949 µM): 35.7% | viability, T/C (second compound 1 µM, first compound 3 µM): 33%
